# Test results reported in US6888033B1, “Anti-viral compounds” (Cytoclonal Pharmaceutics, Inc., priority 1996, dated 2005).
# Read-outs that look alike come from different tables or passages of the source.
# Columns and labels:
# [1] = biological target: T1, Recombinant HRV-1A 3C protease (Human rhinovirus 1A, UniProt P23008); assay: HRV 3C Protease Inhibition Assay - HPLC Method; format: biochemical; details: Km value of 1.9 mM, overnight incubation
# T1 construct: HRV-1A 3C protease was produced in E. Coli [BL21(DE3)pLysS] containing the protease gene; made in house; host or cells: E. coli BL21(DE3)pLysS, T7 expression vector
# T1 sequence (P23008 1515-1697): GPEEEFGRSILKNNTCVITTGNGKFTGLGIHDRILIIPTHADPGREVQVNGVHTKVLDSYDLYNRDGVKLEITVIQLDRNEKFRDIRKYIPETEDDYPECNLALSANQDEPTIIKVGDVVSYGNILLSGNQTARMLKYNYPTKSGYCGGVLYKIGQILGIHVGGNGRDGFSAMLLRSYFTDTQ
# HRV 3C protease = biological target: T2, HRV 3C protease (Human rhinovirus 1A, UniProt P23008); assay: Inhibition of 3C protease cleavage activity, peptide cleavage assay with reverse phase HPLC; format: biochemical
# T2 construct: 2.5 μg of HRV 3C protease
# T2 sequence (P23008 1515-1697): as above
# Procedure: Next, the inhibition of 3C protease activity was measured by using a cleavage assay. […] Specific cleavage of this peptide [(N-Ac)Arg-Ala-Glu-Leu-Gln-Gly-Pro-[…]-Asp-Glu] (SEQ ID NO:2) by HRV 3C provided two pentapeptides. In a typical experiment 80 μg of peptide, dissolved in 100 mM TRIS (pH 8) and 100 mM NaCl, was incubated at 35° C. with 2.5 μg of HRV 3C protease with and without DIF1, to give a total volume of 30 μl. In both cases 3C was suspended in a buffered solution (40 mM Tris-HCL, pH 8.0, 100 mM, NaCl, 1 mM DTT, 1 mM EDTA), 2.5 mg of DIF1 (dissolved in 1 ml of ethanol) was used, corresponding to a concentration of 270 μM. Inhibitory effects due to the organic solvent were not observed; nevertheless, 10 μl of ethanol were added to the control. Aliquots were drawn at short intervals (within ca. 40 min.) and quenched with an equal volume of 1% TFA in Methanol (HPLC grade). […]
# The degree of 3C protease inhibition by DIF1 was found by integration of peak areas under the 280 nm absorption curve. The degree of cleavage was calculated as the ratio of peak areas corresponding to peptide alone and peptide plus GPYDE (SEQ ID NO:3) product. Quantification was based on the initial, linear portion of the absorption curve, which represents less than 20% cleavage.
# elastase = assay: Elastase cleavage activity (specificity); format: biochemical; details: 50 mM DIF1
# Procedure: (§1) The specificity of DIF1 as an enzyme inhibitor was tested using cleavage assays for a number of other enzymes, including elastase, cathepsin B, chymotripsin, papain and ficin A. Elastase was particularly important because it is present in […], so that inhibition of its activity could potentially be highly toxic. […] The experimental method was as follows.
# The cleavage activity of elastase was determined in 0.1 M Tris-HCl pH 7.0 buffer containing 20 μg/ml enzyme and its synthetic substrate. N-succinyl-Ala-Ala-Ala-p-nitroanilide.
# cathepsin B = cathepsin B (Homo sapiens, UniProt P07858); assay: Cathepsin B cleavage activity (specificity); format: biochemical; details: all DIF1 concentrations tested
# Procedure: as §1
# (§2) The cleavage activity for cathepsin B was assayed according to the method of Bajowski an Frankfater (Anal. Biochem. 68:119 (1975)). Chymotripsin was assayed in 0.1M KPi buffer pH 7.0 containing 0.04 μg/ml enzyme and 200 μM N-benzyl-L-tryosine ethyl ester (from a 20 mM stock in dimethyl sulfoxide). The reaction was monitored by spectrophotometry at 256 nm.
# chymotripsin = chymotripsin (Bos taurus, UniProt P00766); assay: Chymotripsin assay (specificity); format: biochemical; details: all DIF1 concentrations tested
# Procedure: as §1, §2
# papain = biological target: T3, papain (Carica papaya, UniProt P00784); assay: Papain assay (specificity); format: biochemical; details: all DIF1 concentrations tested
# T3 sequence (P00784 134-345): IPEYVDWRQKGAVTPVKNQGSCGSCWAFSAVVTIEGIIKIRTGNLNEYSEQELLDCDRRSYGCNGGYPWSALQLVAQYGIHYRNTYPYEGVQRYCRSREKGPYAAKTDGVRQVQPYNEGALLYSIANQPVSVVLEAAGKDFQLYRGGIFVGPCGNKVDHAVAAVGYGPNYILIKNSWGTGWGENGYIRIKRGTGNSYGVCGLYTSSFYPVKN
# Procedure: as §1
# (§3) Papain and Ficin were incubated for one hour in an activation solution containing 0.1 M KPi buffer pH 7.0. 0.5 mM cysteine, 20 mM EDTA and 65 μg enzyme. The assays were carried out by adding 20 μl aliquots from the activation mix to 0.1 M KPi buffer pH 7.0, containing 12.5 nM N-CBZ-p-Nitrophenyl ester. The reaction was monitored by spectrphotometry at 405 nm.
# ficin A = assay: Ficin assay (specificity); format: biochemical; details: all DIF1 concentrations tested
# Procedure: as §1, §3
# [2] = tested on: human rhinovirus 14, strain 1059; assay: Inhibition of virus in whole-cell assay (inhibition of cytopathic effect); format: cell-based
# Procedure: H1-HeLa cells, obtained from ATCC (F-13824, 1958-CRL) were cultured in MEM (Minimum Essential Medium) supplemented with 10% heat-inactivated fetal calf serum (FCS) by incubation at 37° C, 5% CO2 (Biological Industry, Kibbuts Beit HaEmek, Israel).
# 96 well plates were seeded to 90% confluency. After 12-24 hrs of incubation, the cell's monolayer was washed with phosphate-buffered saline (PBS), and the cells were subsequently infected with ten-fold dilutions in PBS (log10) of human rhinovirus 14, strain 1059, obtained from ATCC.
# For each concentration of compound, three rows of wells containing various dilutions of virus were used. After 1 h of incubation at room temperature, medium containing 3% FCS and various concentrations of compound to be tested was placed in the well. After 2 days incubation at 34° C, 5% CO2, the cells were fixed by 10% formaldehyde and stained with methylene blue to determine cell viability. The cytopathic effect of non-viable cells was arbitrarily set to 100% for the untreated viral infection, so that the effect of each compound on cell viability was determined according to this baseline. Each experiment was performed 5 times for each compound, and the inhibition of cytopathic effect (ICE50) for inhibition of viral activity was calculated. […] ICE50 refers to the concentration in which 50% of the cells remain viable after viral infection.
# H1-HeLa cells = assay: 50% toxic dose (TD50); format: cell-based
compound,measurement,setting,value
"COc1ccc(C(=O)c2ccccc2O)c(O)c1 [Compound 1, Dioxybenzone, reference compound]",Ki,[1],4700 ± 900 µM
"O=C1C=CC(=O)c2c(O)cccc21 [Compound 3, Juglone, reference compound]",Ki,[1],630 ± 70 µM
"CCCCCC(=O)c1c(O)c(Cl)c(OC)c(Cl)c1O [Compound 15, 1-(3,5-dichloro-2,6-dihydroxy-4-methoxyphenyl)-hexan-1-one]",Ki,"HRV 3C protease; HRV 3C protease, N-acetylated 10-mer peptide substrate, 35° C.",220 µM
same,rate of substrate cleavage,HRV 3C protease; in the presence of 270 μM DIF1,decreased significantly
same,Ki,[1],460 ± 80 µM
same,inhibition of cleavage activity of elastase,elastase,did not inhibit
same,effect on proteolytic activity of cathepsin B,cathepsin B,not to effect
same,effect on proteolytic activity of chymotripsin,chymotripsin,not to effect
same,effect on proteolytic activity of papain,papain,not to effect
same,effect on proteolytic activity of ficin A,ficin A,not to effect
same,IC50,"[2]; Rhinovirus B, H1-HeLa",7.5 µM
same,TD50,H1-HeLa cells,30
"CCCCCC(=O)c1c(O)c(Cl)c(O)c(Cl)c1OC [Compound 16, 1-(3,5-dichloro-2,4-dihydroxy-6-methoxyphenyl)-hexan-1-one]",Ki,[1],390 ± 30 µM
same,IC50,"[2]; Rhinovirus B, H1-HeLa cells, HRV 14, Table 2, Formula V, read-out: IC50",3 µM
same,TD50,H1-HeLa cells,40
CCCCCC(=O)c1c(O)c(Cl)c(O)c(Cl)c1O [Compound 20],Ki,[1],460 ± 60 µM
same,TD50,H1-HeLa cells,1875
"COc1cc(O)cc(O)c1C(C)=O [Compound 23, 2,4-dihydroxy-6-methoxy acetophenone]",TD50,"H1-HeLa cells; Table 1, Formula IV",220 µM
COc1cc(O)c(Cl)c(O)c1C(C)=O [Compound 25],Ki,[1],3000 ± 1500 µM
same,IC50,"[2]; Rhinovirus B, 48 h, H1-HeLa cells, HRV 14, 2 days at 34° C, Table 1, Formula IV, read-out: ICE50",11 µM
same,TD50,H1-HeLa cells; human,22 µM
same,melting point,,187.5 to 189 °C
"COC(CCO)CC(O)C(=O)c1ccccc1 (stereo not drawn) [Compound 107, 2,6-dihydroxy-4-methoxyhexanophenone]",melting point,,121 °C
"COCCC(O)CC(O)C(=O)c1ccccc1 (stereo not drawn) [Compound 108, 2,4-dihydroxy-6-methoxyhexanophenone]",melting point,,109 °C
CC(=O)c1c(O)c(Cl)cc(Cl)c1O [Compound 109],IC50,"[2]; H1-HeLa cells, HRV 14, 2 days at 34° C, Table 1, Formula IV, read-out: ICE50",1250 µM
same,TD50,H1-HeLa cells,5000 µM
"O=C(CCc1ccc(O)cc1)c1c(O)cc(O)cc1O [Formula VIII, Z′=OH, Y′=H, R3=OH, Y=H, phloretin]",TD50,H1-HeLa cells,160
